Three molecules from publication PMC6362118, “Pharmacophore-guided discovery of CDC25 inhibitors causing cell cycle arrest and tumor regression” (Scientific Reports, 2019) can be followed below.

Experiment [1] has as its target T1, CDC25A (Homo sapiens, UniProt P30304).
T1 construct: GST (pGEX vector) (N); made in house; host or cells: E. coli BL21
T1 sequence (P30304 1-524): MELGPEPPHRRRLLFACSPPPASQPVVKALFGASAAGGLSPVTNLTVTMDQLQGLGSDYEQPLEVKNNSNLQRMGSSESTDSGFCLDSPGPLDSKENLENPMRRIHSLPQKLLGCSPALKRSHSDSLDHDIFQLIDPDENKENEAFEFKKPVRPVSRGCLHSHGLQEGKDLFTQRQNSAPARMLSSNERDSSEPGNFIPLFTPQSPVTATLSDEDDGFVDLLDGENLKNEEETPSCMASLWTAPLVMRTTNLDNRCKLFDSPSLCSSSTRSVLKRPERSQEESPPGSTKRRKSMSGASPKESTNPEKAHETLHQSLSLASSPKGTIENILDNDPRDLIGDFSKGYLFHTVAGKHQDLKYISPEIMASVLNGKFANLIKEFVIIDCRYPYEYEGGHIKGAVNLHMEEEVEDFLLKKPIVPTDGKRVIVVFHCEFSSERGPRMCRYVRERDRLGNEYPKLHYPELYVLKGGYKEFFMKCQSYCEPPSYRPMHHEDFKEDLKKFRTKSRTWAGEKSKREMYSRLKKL
The experiment can be described thus: Enzymatic assay (OMFP substrate) on recombinant CDC25A. Type of experiment: biochemical. Conditions: for remaining activity at 20 µM: compound 20 µM, relative to DMSO control; for IC50: dose-response on recombinant CDC25A. As for the experimental part: 57 UPD compounds were dissolved in DMSO at 10 mM stock concentration and stored in
60 Expression and purification of CDC25 phosphatases - CDC25A (kind gift of I.
61 Hoffmann, Heidelberg, Germany), CDC25B and CDC25C (kind gift of B. Gabrielli,
62 Queensland, Australia) in pGEX were expressed in E. coli BL21 cells and purified on 1
63 ml Glutathione Sepharose 4 Fast Flow columns as described 1.
65 Enzymatic assays - CDC25A, CDC25B and CDC25C were appropriately diluted in 10
66 mM Tris-HCl pH 8.0, 50 mM NaCl and assayed in 20 mM Tris-HCl pH 8.0, 75 mM
67 NaCl, 0.5 mM EGTA, 1 mM DTT, 0.1 mg/ml BSA and defined concentrations of
68 compounds. Reactions were started by addition of the substrate OMFP (0.1 mM). Assays
69 were carried out at room temperature in duplicate or triplicate using transparent-bottom,
70 V-shaped 96 well plates and read at defined intervals on a Molecular Devices
71 SpectraMax microplate reader (ex: 490 nm / em: 525 nm). IC50 and kinetic parameters
72 calculated from Lineweaver-Burk double-reciprocal plots of the data were obtained using
73 GraphPad Prism software. […]

Experiment [2] relates to MKP5 (DUSP10). In words: Compound profiling, phosphatase panel (Eurofins). As to conditions: relative to DMSO. The class given is biochemical. The text has this:
(§1) 125 Compound profiling - Selected compounds were profiled against a panel of protein
(§2) 126 phosphatases at Eurofins Pharma Discovery Services Ltd., Dundee, UK.

In experiment [3] the test system is PP2A. In words: Compound profiling, phosphatase panel (Eurofins). As to conditions: relative to DMSO. The class given is biochemical.
Excerpt: as §1, §2

Experiment [4] has as its system PTPN1 (PTP1B). In words: Compound profiling, phosphatase panel (Eurofins). The class given is biochemical. Conditions: relative to DMSO.
Excerpt: as §1, §2

The subject of experiment [5] is PTPN22. In words: Compound profiling, phosphatase panel (Eurofins). Conditions: relative to DMSO. The class given is biochemical.
Excerpt: as §1, §2

The test system of experiment [6] is PTPN6 (SHP-1). In words: Compound profiling, phosphatase panel (Eurofins). The class given is biochemical. Conditions: relative to DMSO.
Excerpt: as §1, §2

Experiment [7] relates to PTPN9 (MEG2). The experiment can be described thus: Compound profiling, phosphatase panel (Eurofins). Type of experiment: biochemical. Conditions: relative to DMSO.
Excerpt: as §1, §2

The subject of experiment [8] is TMDP (DUSP13). In words: Compound profiling, phosphatase panel (Eurofins). As to conditions: relative to DMSO. The class given is biochemical.
Excerpt: as §1, §2

Experiment [9] has as its system VHR (DUSP3). The experiment can be described thus: Compound profiling, phosphatase panel (Eurofins). As to conditions: relative to DMSO. Type of experiment: biochemical.
Excerpt: as §1, §2

Experiment [10] relates to HeLa cells. In words: Flow cytometric analysis of cell cycle progression (DNA content) in HeLa cells. Type of experiment: cell-based. Conditions: for effect on the G2/M transition: double-thymidine synchronized HeLa, 10 μM added 5 h upon release, analysed 12 h post-release; for progression through S-phase: HeLa, 10 µM added at release from double-thymidine block (early S-phase); for effect on cell cycle distribution (DNA content): asynchronous HeLa cells, 10 μM, 15 h. As for the experimental part:
Reactions were started by addition of the substrate OMFP (0.1 mM). Assays 69 were carried out at room temperature in duplicate or triplicate using transparent-bottom, 70 V-shaped 96 well plates and read at defined intervals on a Molecular Devices 71 SpectraMax microplate reader (ex: 490 nm / em: 525 nm). IC50 and kinetic parameters 72 calculated from Lineweaver-Burk double-reciprocal plots of the data were obtained using 73 GraphPad Prism software. 74 75 Cell culture - Wild-type HeLa and Kyoto HeLa cells stably expressing mCherry-H2B 76 were maintained in DMEM+L-Glutamine (Gibco, Life Technologies, USA) 77 supplemented with 5% fetal calf serum (FCS) (Gibco) and penicillin-streptomycin (100 […] A549 and Colo741 were grown and maintained like HeLa 79 cells but with 10% FCS. HCT116 were maintained in McCoy's medium supplemented 80 with 10% FCS and penicillin-streptomycin. U2OS-Tet-OFF cells expressing HA-CDC25 81 were grown and maintained in DMEM+L-Glutamine, 10% Tet-free FCS and penicillin- 82 streptomycin in the presence or the absence of 4 μg/ml tetracycline (Sigma, T7660). 83 84 Cell synchronization - Cell synchronization was performed by double thymidine block- 85 release protocol 2 or nocodazole treatment 3 and verified by flow cytometry. 86 87 Cell viability assays - Compounds viability upon 48h treatment with the compounds was 88 assessed as described 4. Data were plotted with Prism 7® and analyzed by non-linear 89 regression. Comparison of single curve fitting to all data set within an experiment was 90 performed with the extra sum-of-squares F-test to determine P values. 91 92 Western blotting - Cell lysis and immunoblot analysis were performed as previously 93 described 5. […] Cells were washed with PBS, resuspended […] To 100 quantify phosphorylation of CDK1 at Tyr15 and H2AX at S139, cells were harvested and 101 examined as described 6. Samples were measured on an AttuneTM NxT Cytometer 102 (ThermoFisher Scientific, Carlsbad, CA, USA) and data were analyzed with FlowJo® 103 software v10 (FlowJo, LLC, Ashland, OR, USA). 104 105 Real Time qRT-PCR - Organoids were lysed in Tri-Reagent (Sigma) as previously 106 described 7 and total RNA was isolated as described by manufacturer's instructions. For […] 108 High Fidelity cDNA Synthesis kit (Roche). Real-time quantitative PCR reactions were 109 performed in three independent biological replicates, each with technical triplicate, using 110 the Applied Biosystems SYBR Green Kit and monitored by the ABI Prism 7900HT 111 system (Applied Biosystem). The following primers were used: 112 Lgr5: Forward [NT] and Reverse 5'- […] 114 Lysozyme: Forward [NT] and Reverse 5'- 115 [NT]3' 116 Cryptdin: Forward [NT] and Reverse 5'- 117 [NT]-binding protein (TBP): Forward [NT] and 119 Reverse [NT] 120 […] 122 amplification curves and the melting temperature analysis of the final amplification […] 4

Where [11] appears, read: read-out: % remaining activity ± SD (Table S1, first round of selection).

Like-named read-outs stand apart in the source and are kept apart here.

As for `O=C1C=C(c2ccc(O)cc2O)C(=O)c2c(O)cccc21` [UPD-140, 2-(2′,4′-dihydroxyphenyl)-8-hydroxy-1,4-naphthoquinone], the remaining activity at 20 µM in experiment [1] (setting [11]) amounted to 0.1 ± 0.1%. Further, the IC50 in experiment [1] worked out at 1420 nM. Further, the “remaining activity (%)” value in experiment [2] (UPD-140 1.5 µM) was determined as 109%; in [3] (UPD-140 1.5 µM) it was 95 ± 2%; in experiment [4] (UPD-140 1.5 µM) it was 95 ± 5%; in [5] (UPD-140 1.5 µM) it was 99 ± 5%; in experiment [6] (UPD-140 1.5 µM) it was 78 ± 2%; in experiment [7] (UPD-140 1.5 µM) it was 89%. The “remaining activity (%)” value in experiment [8] (UPD-140 1.5 µM) was 105 ± 4%; in [9] (UPD-140 1.5 µM), 106 ± 4%. In addition, the “effect on the G2/M transition” value in experiment [10] is “accretion of the G2/M peak”.
With `O=C1C(c2ccc(O)cc2O)=CC(=O)c2c(O)cccc21` [UPD-176, 5-hydroxy-2-(2,4-dihydroxyphenyl)naphthalene-1,4-dione], the remaining activity at 20 µM in experiment [1] (setting [11]) was 0%. Further, the “effect on the G1/S transition” value in experiment [10] (HeLa synchronized at G2/M, 10 μM added in mid-G1, analysed 12 h post-release) is on record as “effectively blocked cells in G1”. In addition, in experiment [10], the “progression through S-phase” value is “progression through S-phase was effectively held in check”, the “effect on cell cycle distribution (DNA content)” value is “accumulation of cells at G2/M” and the “effect on the G2/M transition” value is reported as “accretion of the G2/M peak”.
Take `COc1cccc(SC2=CC(=O)c3cccc(O)c3C2=O)c1` [UPD-795, 2-(3-methoxyphenylthio)-8-hydroxynaphthalene-1,4-dione]: in experiment [1] (read-out: % remaining activity ± SD (Table S2, second round of selection)), the remaining activity at 20 µM was 0%. Moreover, the IC50 in [1] worked out at 1250 nM. Also, the “mechanism of enzyme inhibition” value in [1] (kinetic analysis, mixed-model inhibition equation) is “mixed mechanism of enzyme inhibition”. In experiment [1] (mixed-model inhibition equation), the inhibition constant Ki worked out at 1180 ± 400 nM. Further, the “remaining activity (%)” value in experiment [2] (UPD-795 1 µM) was 107 ± 1%; in experiment [3] (UPD-795 1 µM), 94 ± 1%; in experiment [4] (UPD-795 1 µM) it was 94 ± 7%; in [5] (UPD-795 1 µM) it was 98 ± 1%; in experiment [6] (UPD-795 1 µM), 80 ± 3%; in experiment [7] (UPD-795 1 µM), 85 ± 5%. Moreover, the results for the “remaining activity (%)” value in experiment [8] (UPD-795 1 µM) and in [9] (UPD-795 1 µM) were 100% and 108 ± 4%, respectively. Also, the “progression through S-phase” value in experiment [10] is reported as “progression through S-phase was effectively held in check”. Moreover, the “effect on cell cycle distribution (DNA content)” value in [10] is reported as “increase of the G1 population”.
